Assay [1] concerns platelets. In words: Platelet adhesion assay: calcein-labeled platelets on fibrinogen-coated wells. The assay is classed as cell-based. Conditions: Homo sapiens, mean±SD. The protocol:
Thirty microliters of human fibrinogen (50 μg/mL) in Tris/saline (100 mM NaCl, 50 mM Tris/HCl, pH 7.4; American Diagnostica, Stamford, Conn.) are added to black, clear-bottom, untreated polystyrene, nonsterile 384-well microtiter plate wells (Corning no. 3711; Acton, Mass.). […] An additional wash is performed using HBMT with 1 mM MgCl2 and 2 mM CaCl2. Calcein-labeled platelets (final concentration 1×10^11/L) are treated with selected Compounds of the Invention (final concentration of 100 μM, 30 μM, 10 μM or 1 μM) at 22° C. for 20 minutes. Thirty microliters of platelets are then added to the wells. After 1 hour of adhesion, wells are washed 3 times with HBMT-1 mM MgCl2/2 mM CaCl2 and the plates are read by a fluorescent microtiter plate reader (Envision; Perkin Elmer) to detect calcein fluorescence (490 nm excitation and 515 nm emission). Negative controls consist of wells containing platelets without compounds of the invention.

For assay [2], the system named is washed platelets. The assay is described as follows: Effect of Mg2+ concentration on platelet adhesion to fibrinogen. Conditions: 1, 20, 50 mM Mg2+. Type of assay: cell-based, human. How it is done: Washed platelets in buffers containing 1 mM Ca^2+ plus 1 mM, 20 mM, or 50 mM Mg^2+ are added to wells pre-coated with fibrinogen (50 μg/ml) for 60 min at 22° C. After washing, adherent platelets are detected by acid phosphatase activity. Results are expressed as mean±SD (n=3 for the compound of Example 27 of the current invention and 2-ethyl-7-(piperazin-1-yl)-5H-[1,3,4]thiadiazolo-[3,2-a]pyrimidin-5-one (a compound disclosed and claimed in U.S. Ser. No. 12/514,286); n=2 for tirofiban).

A further assay has as its target T1, purified αIIbβ3 (Homo sapiens, UniProt P05106+P08514).
T1 construct: αIIbβ3 is purified from outdated single donor platelet concentrates obtained from the New York Blood Center; tissue New York Blood Center; host or cells: outdated single donor platelet concentrates
In words: Extension of purified αIIbβ3 in nanodiscs by negative staining electron microscopy. The following applies: for shift of nanodisc-integrin length (NIL) frequency distribution: 1 hour at room temperature, at highest doses majority of NIL values 18 to 23 nm. How it is done: In brief, the His-tagged membrane scaffold protein is prepared as a recombinant protein in E. coli and purified by Nickel affinity chromatography and anion exchange chromatography. Final assembly consists of solubilizing an equimolar mixture of 1,2-dimyristoyl-sn-glycero-3-phosphocholine and 1,2-dimyristoyl-sn-glycero-3-phospho-(1′-rac-glycerol) in octylglucoside and cholate and then adding the purified αIIbβ3. The detergents are removed with macroporous polymeric beads (Bio-Bead SM-2) and then the αIIbβ3 nanodiscs are separated from the empty nanodiscs by gel filtration.
αIIbβ3 nanodiscs are treated with eptifibatide, tirofiban, 2-ethyl-7-(piperazin-1-yl)-5H-[1,3,4]thiadiazolo-[3,2-a]pyrimidin-5-one of U.S. Ser. No. 12/514,286, or the compound of Example 27 of the current invention for 1 hour at room temperature at concentrations up to 100 μM for 2-ethyl-7-(piperazin-1-yl)-5H-[1,3,4]thiadiazolo-[3,2-a]pyrimidin-5-one (a compound claimed in U.S. Ser. No. 12/514,286) and at concentrations up to 10 μM for 2-amino-N-(3-(5-oxo-7-(piperazin-1-yl)-5H-[1,3,4]thiadiazolo[3,2-a]pyrimidin-2-yl)phenyl)acetamide of Example 27. Samples are loaded onto carbon-coated copper grids that are glow-discharged by a carbon coating unit (Edwards; Crowley, UK), and then stained with 2% uranyl acetate, followed by drying. Imaging of αIIbβ3 nanodiscs is performed using a JOEL JEM 100CX transmission electron microscope (Jeol Ltd; Tokyo, Japan) at 80 kV and magnifications of 33,000× and 50,000×. Individual nanodiscs containing αIIbβ3 are manually selected for analysis using Image J (NIH, Bethesda, Md.). The distance from the bottom of the nanodisc to the height of the αIIbβ3 complex (nanodisc-integrin length; NIL) is measured as an indicator of integrin extension. The frequency distribution of NIL values is then analyzed for untreated αIIbβ3 nanodiscs and αIIbβ3 nanodiscs in the presence of different compounds.

In assay [3] the target is T2, HEK293 cells stably expressing normal human αIIbβ3 (Homo sapiens, UniProt P05106+P08514).
T2 construct: expressed in transfected cells; host or cells: HEK293
T2 sequence (P08514 32-887 limits assumed): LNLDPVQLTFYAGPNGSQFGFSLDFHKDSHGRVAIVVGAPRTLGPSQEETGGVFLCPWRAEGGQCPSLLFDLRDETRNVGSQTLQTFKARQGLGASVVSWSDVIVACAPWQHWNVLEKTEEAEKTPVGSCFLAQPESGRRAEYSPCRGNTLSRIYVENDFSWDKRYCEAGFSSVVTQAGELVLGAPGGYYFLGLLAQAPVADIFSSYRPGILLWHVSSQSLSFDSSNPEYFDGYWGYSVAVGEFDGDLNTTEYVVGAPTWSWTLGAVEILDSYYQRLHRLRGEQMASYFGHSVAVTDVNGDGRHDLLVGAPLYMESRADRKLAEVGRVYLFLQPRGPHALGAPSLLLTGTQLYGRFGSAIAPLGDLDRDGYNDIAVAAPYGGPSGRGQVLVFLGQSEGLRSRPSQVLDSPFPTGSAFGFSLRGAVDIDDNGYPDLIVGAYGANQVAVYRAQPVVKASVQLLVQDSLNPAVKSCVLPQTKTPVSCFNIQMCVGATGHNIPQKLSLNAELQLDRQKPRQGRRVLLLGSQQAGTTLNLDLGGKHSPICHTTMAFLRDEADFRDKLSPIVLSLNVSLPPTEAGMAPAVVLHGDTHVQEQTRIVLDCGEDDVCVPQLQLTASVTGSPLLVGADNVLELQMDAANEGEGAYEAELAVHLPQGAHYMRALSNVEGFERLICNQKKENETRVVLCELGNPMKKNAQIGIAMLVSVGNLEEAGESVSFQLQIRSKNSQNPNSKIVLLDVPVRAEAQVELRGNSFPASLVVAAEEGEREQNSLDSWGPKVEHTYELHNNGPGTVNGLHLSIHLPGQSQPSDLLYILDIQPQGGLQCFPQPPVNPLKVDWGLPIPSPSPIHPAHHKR
T2 sequence (P08514 891-1039 partner limits assumed): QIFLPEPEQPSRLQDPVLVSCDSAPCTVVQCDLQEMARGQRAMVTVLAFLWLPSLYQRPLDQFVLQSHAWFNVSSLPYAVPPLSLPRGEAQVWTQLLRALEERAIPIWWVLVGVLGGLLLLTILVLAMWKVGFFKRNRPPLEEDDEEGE
T2 sequence (P05106 27-788): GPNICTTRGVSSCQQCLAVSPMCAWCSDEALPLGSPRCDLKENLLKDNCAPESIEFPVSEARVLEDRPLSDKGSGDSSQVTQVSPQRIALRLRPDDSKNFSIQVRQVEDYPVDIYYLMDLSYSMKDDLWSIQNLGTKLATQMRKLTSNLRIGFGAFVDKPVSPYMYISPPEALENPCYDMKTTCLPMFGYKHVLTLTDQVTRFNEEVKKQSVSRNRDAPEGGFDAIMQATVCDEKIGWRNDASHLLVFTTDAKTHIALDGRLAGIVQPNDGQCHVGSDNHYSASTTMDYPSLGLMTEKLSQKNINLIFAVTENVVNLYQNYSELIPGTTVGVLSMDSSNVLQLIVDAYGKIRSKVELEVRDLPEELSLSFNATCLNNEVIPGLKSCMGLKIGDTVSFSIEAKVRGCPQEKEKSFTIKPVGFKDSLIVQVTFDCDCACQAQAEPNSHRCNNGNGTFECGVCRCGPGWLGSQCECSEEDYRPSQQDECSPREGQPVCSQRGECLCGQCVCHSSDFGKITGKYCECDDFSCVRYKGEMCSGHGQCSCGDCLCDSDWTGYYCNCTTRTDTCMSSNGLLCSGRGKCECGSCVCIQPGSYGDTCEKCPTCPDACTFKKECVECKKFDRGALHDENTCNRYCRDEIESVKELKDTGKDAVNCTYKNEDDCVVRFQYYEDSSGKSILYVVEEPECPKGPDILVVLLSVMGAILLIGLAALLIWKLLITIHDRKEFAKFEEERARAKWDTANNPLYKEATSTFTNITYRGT
The assay is described as follows: αIIbβ3-mediated cell adhesion to fibrinogen. Type of assay: cell-based. Conditions: same concentration as αVβ3 experiments (100 μM), n=4. The protocol:
Washed platelets are prepared as per the primary screening assay, suspended in HBMT containing 1 mM MgCl2 (platelet adhesion to collagen) or 2 mM CaCl2/1 mM MgCl2 (platelet adhesion to fibrinogen) and adjusted to a count of 250×10^9/L. HEK293 cells stably expressing normal human αVβ3 or normal human αIIbβ3 are suspended in HBMT containing either 1 mM MgCl2 (HEK293 cells expressing αVβ3 for adhesion to vitronectin) or 2 mM CaCl2/1 mM MgCl2 (HEK293 cells expressing αIIbβ3 for adhesion to fibrinogen); the cell counts are adjusted to 10^6/mL. Polystyrene 96-well microtiter plates (Nunc) are coated with either fibrinogen (50 μg/mL), vitronectin (5 μg/mL), or collagen (33 μg/mL, rat tail type 1; Becton Dickinson) for 1 hour, and blocked with HBMT for at least 1 hour. Platelets and cells are treated with the compound of Example 27 of the current invention or 2-ethyl-7-(piperazin-1-yl)-5H-[1,3,4]thiadiazolo-[3,2-a]pyrimidin-5-one of U.S. Ser. No. 12/514,286 in the presence or absence of anti-α2β1 mAb 6F1, anti-αIIbβ3 mAb 10E5, anti-αIIbβ3 mAb 10E5+αVβ3 mAb 7E3, αVβ3-specific mAb LM609, or anti-αVβ3+αIIbβ3 mAb 7E3, for 15 minutes at 37° C. before being added to the microtiter wells. After adhering for 1 hour at either 22° C. (platelets) or 37° C. […]

The next assay concerns the target T3, αIIbβ3 (Homo sapiens, UniProt P05106+P08514).
T3 construct: Washed platelets are prepared in HBMT containing 2 mM CaCl2/1 mM MgCl2; endogenous in cells; host or cells: washed platelets
In words: Induction of ligand-induced binding site (LIBS) epitopes, flow cytometry of washed platelets. The assay is classed as cell-based. Conditions: eptifibatide 10 μM = 100%, Example 27 at 100 μM. How it is done:
Washed platelets are prepared in HBMT containing 2 mM CaCl2/1 mM MgCl2. […] Fluorescently labeled monoclonal antibodies (PMI-1, LIBS-1, AP5, or 10E5; Alexa-488 conjugated; Invitrogen) are then added (20 μL, final concentration: 5 μg/mL) and incubated for 30 minutes at 22° C. in the dark, after which samples are diluted 1:10 in HBMT with CaCl2/MgCl2 for analysis by flow cytometry (FACSCalibur; Becton Dickinson, Franklin Lakes, N.J.). Antibody binding is reported as the geometric mean fluorescence intensity; nonspecific binding is determined by adding a 50-fold excess of unlabeled antibody before adding the labeled antibody. The net normalized fluorescence intensity in the presence of eptifibatide (10 μM, 30 min incubation at 22° C.) is assigned the value of 100%
(In general: Flow cytometry measures light scatter and fluorescence of single cells or particles in a stream.)

In assay [4] the target is T4, HEK293 cells stably expressing normal human αVβ3 (Homo sapiens, UniProt P05106+P06756).
T4 construct: expressed in transfected cells; host or cells: HEK293
T4 sequence (P06756 31-889 limits assumed): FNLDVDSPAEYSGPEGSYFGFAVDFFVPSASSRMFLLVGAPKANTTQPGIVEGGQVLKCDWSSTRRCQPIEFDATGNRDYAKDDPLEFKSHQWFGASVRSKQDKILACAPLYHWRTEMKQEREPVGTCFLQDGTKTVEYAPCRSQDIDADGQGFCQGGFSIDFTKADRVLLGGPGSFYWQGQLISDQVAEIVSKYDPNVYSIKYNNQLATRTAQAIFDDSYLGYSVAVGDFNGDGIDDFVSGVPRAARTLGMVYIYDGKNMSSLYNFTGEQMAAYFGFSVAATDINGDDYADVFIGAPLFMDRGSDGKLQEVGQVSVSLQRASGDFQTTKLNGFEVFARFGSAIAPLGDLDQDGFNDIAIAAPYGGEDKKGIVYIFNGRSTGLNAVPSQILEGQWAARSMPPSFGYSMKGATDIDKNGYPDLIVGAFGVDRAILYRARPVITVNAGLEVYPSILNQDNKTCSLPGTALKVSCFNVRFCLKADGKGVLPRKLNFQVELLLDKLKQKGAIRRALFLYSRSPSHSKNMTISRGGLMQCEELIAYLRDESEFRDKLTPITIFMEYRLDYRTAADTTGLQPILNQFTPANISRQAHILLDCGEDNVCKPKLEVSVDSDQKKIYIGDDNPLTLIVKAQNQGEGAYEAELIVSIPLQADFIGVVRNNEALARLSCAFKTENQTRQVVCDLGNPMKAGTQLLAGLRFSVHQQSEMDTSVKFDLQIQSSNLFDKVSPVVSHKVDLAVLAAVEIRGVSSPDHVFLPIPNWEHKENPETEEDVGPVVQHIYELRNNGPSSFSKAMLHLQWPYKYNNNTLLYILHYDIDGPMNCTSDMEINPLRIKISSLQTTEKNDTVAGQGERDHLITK
T4 sequence (P06756 891-1048 partner limits assumed): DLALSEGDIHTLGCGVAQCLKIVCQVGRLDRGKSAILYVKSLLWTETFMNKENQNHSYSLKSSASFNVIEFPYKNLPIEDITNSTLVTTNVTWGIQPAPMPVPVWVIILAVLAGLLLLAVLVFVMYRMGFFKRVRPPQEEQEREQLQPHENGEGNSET
T4 sequence (P05106 27-788): as the sequence (P05106 27-788) above
The assay is described as follows: αVβ3-mediated cell adhesion to vitronectin. Type of assay: cell-based. The following applies: HEK293, n=4. How it is done:
Washed platelets are prepared as per the primary screening assay, suspended in HBMT containing 1 mM MgCl2 (platelet adhesion to collagen) or 2 mM CaCl2/1 mM MgCl2 (platelet adhesion to fibrinogen) and adjusted to a count of 250×10^9/L. HEK293 cells stably expressing normal human αVβ3 or normal human αIIbβ3 are suspended in HBMT containing either 1 mM MgCl2 (HEK293 cells expressing αVβ3 for adhesion to vitronectin) or 2 mM CaCl2/1 mM MgCl2 (HEK293 cells expressing αIIbβ3 for adhesion to fibrinogen); the cell counts are adjusted to 10^6/mL. Polystyrene 96-well microtiter plates (Nunc) are coated with either fibrinogen (50 μg/mL), vitronectin (5 μg/mL), or collagen (33 μg/mL, rat tail type 1; Becton Dickinson) for 1 hour, and blocked with HBMT for at least 1 hour. Platelets and cells are treated with the compound of Example 27 of the current invention or 2-ethyl-7-(piperazin-1-yl)-5H-[1,3,4]thiadiazolo-[3,2-a]pyrimidin-5-one of U.S. Ser. No. 12/514,286 in the presence or absence of anti-α2β1 mAb 6F1, anti-αIIbβ3 mAb 10E5, anti-αIIbβ3 mAb 10E5+αVβ3 mAb 7E3, αVβ3-specific mAb LM609, or anti-αVβ3+αIIbβ3 mAb 7E3, for 15 minutes at 37° C. before being added to the microtiter wells. After adhering for 1 hour at either 22° C. (platelets) or 37° C. (cells), nonadherent platelets or cells are removed by washing 3 times with HBMT containing the same ion composition as the buffer used for adhesion. […] In other experiments, 8-chambered glass coverslips (Nunc) are coated with collagen (33 μg/mL) for 1 hour at 22° C. Washed platelets are allowed to adhere for 1 hour at 22° C. and the coverslips are stained with the Alexa-488-conjugated β3-specific mAb 7H2. Adherent platelets are imaged using a Zeiss LSM-510 confocal system with Axiovert 200 microscope (Carl Zeiss, Heidelberg, Germany) using a Plan-Apochromat 100/1.4 NA oil DIC objective.

The subject of assay [5] is washed platelets. The assay is described as follows: Effect of Mg2+ on washed platelet aggregation induced by thrombin receptor activating peptide (SFLLRN). Type of assay: cell-based, human. The following applies: compound at 100 μM; SFLLRN 10 μM. The protocol: Washed platelets are resuspended in buffer containing fibrinogen (200 μg/ml) and 1 mM […] in combination with either 1 mM or 20 mM Mg^2+. Aggregation is induced by adding a thrombin receptor activating peptide (SFLLRN) at 10 μM.

Assay [6] relates to platelets. In words: Platelet aggregation assay: ADP-induced, platelet-rich plasma. The assay is classed as cell-based, human. Conditions: citrate anticoagulant, tested twice, read-out: IC50, ADP-induced platelet aggregation of citrated PRP. How it is done: […] After 30 seconds in the aggregometer (Kowa AF-10E; Tokyo, Japan) at 37° C. with stirring, ADP (5-20 μM) is added to induce aggregation and the light transmittance is measured for 8 minutes. The initial slopes of aggregation in the presence of different concentrations of the Compound being tested are used to generate an IC50.

Each structure is given as a SMILES string. Several values for one entry are separate records, joined by “and”; a condition that tells them apart may be missing. Identical values can stand only once. Like-named read-outs stand apart in the source and are kept apart here. Bridge positions count the residues as written; N and C are the ends. Square brackets hold non-standard residues; d marks the D form. Peptide text beside a SMILES is read from it. hArg = N=C(N)NCCCC[C@H](N)C(=O)O; Mpa = O=C(O)CCS

Usually inhibition stands for how much of the control response was suppressed. By IC50 is commonly meant the midpoint of a concentration-inhibition curve.

T3 sequence (P08514 32-887 limits assumed): as the sequence (P08514 32-887 limits assumed) above
T3 sequence (P08514 891-1039 partner limits assumed): as the sequence (P08514 891-1039 partner limits assumed) above
T3 sequence (P05106 27-788): as the sequence (P05106 27-788) above
T1 sequence (P08514 32-887 limits assumed): as the sequence (P08514 32-887 limits assumed) above
T1 sequence (P08514 891-1039 partner limits assumed): as the sequence (P08514 891-1039 partner limits assumed) above
T1 sequence (P05106 27-788): as the sequence (P05106 27-788) above

Turning to `CCCCS(=O)(=O)N[C@@H](Cc1ccc(OCCCCC2CCNCC2)cc1)C(=O)O` [tirofiban, reference compound], in the assay with platelets [1], the inhibition at 10 µM was 87 ± 9%. Moreover, the “increase in IC50 at higher Mg2+ concentrations comparable to that of Example 27” value with washed platelets [2] is “nor tirofiban shows a comparable increase in IC50”. In addition, at purified αIIbβ3, the “shift of nanodisc-integrin length (NIL) frequency distribution” value is listed as “shift the distribution in a dose-dependent manner”.
Consider `CCc1nn2c(=O)cc(N3CCNCC3)nc2s1` [Example 1, 2-ethyl-7-(piperazin-1-yl)-5H-[1,3,4]thiadiazolo[3,2-a]pyrimidin-5-one], for which the inhibition at 100 µM in assay [3] was 55 ± 5%; with platelets [1] (100 μM, 5 separate experiments) it was 70 ± 15%; in assay [4] (100 μM) it was 5 ± 7%. Moreover, the “AP5 binding, % of the amount in the presence of eptifibatide” value on αIIbβ3 was 10±4% and 10%. Besides, the “LIBS1 binding after 30 min, % of the amount in the presence of eptifibatide” value on αIIbβ3 came out at 18±2%. In addition, the “PMI-1 binding, % of the amount bound by platelets treated with eptifibatide” value on αIIbβ3 was found to be 73±9%. In the assay with platelets [1], the inhibition at 10 µM was 22 ± 8%. The inhibition at 30 µM in the assay with platelets [1] (30 μM, 5 separate experiments) was 38 ± 10%. Also, in the assay with washed platelets [5], the “effect of Mg2+ on the inhibition of SFLLRN-induced platelet aggregation” value is listed as “much less evident”. The “shift of nanodisc-integrin length (NIL) values / receptor extension” value at purified αIIbβ3 (concentrations up to 100 μM) was “do not induce receptor extension”. The IC50 in the assay with platelets [6] (Homo sapiens, Platelet) was 12 µM; with platelets [6], 18 µM.
In the case of `N=C(N)NCCCC[C@@H]1NC(=O)CCSSC[C@@H](C(N)=O)NC(=O)[C@@H]2CCCN2C(=O)[C@H](Cc2c[nH]c3ccccc23)NC(=O)[C@H](CC(=O)O)NC(=O)CNC1=O` [eptifibatide, reference compound] ([Mpa][hArg]GDWPC-NH2; disulfide 1-7), the “shift of nanodisc-integrin length (NIL) frequency distribution” value on purified αIIbβ3 is recorded as “shift the distribution in a dose-dependent manner”.
In assay [4] (10 μM), `NCC(=O)Nc1cccc(-c2nn3c(=O)cc(N4CCNCC4)nc3s2)c1` [2-amino-N-(3-(5-oxo-7-(piperazin-1-yl)-5H-[1,3,4]thiadiazolo[3,2-a]pyrimidin-2-yl)phenyl)acetamide] had an inhibition at 10 µM of 6 ± 15%.
